Measured values: ChEMBL document CHEMBL1201862, “PubChem BioAssay data set” (2004)
Calls of active or inactive are those of the source.

Assays:
[1] = target: NAD-dependent protein deacylase sirtuin-5, mitochondrial (Homo sapiens, UniProt Q9NXA8); test: SIRT5 desuccinylase inhibitors, dose response, biochemical, fluorescence imaging, cherry-pick, set 5 (AID 720591);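 also: desuccinylation of succinyl peptide AMC substrate read as fluorescence after trypsin release; potency of inhibitors that lower fluorescence and may act on trypsin instead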
Caspase-6 = Caspase-6 (Homo sapiens, UniProt P55212); test: human caspase-6 inhibitors, dose response, biochemical, VEID-R110 fluorescence, cherry-pick (AID 720632)
[2] = target: T1, Corticotropin-releasing factor receptor 2/Corticotropin-releasing factor-binding protein (Homo sapiens, UniProt P24387+Q13324); test: Dose Response confirmation of uHTS hits for small molecule antagonists of the CRF-binding protein and CRF-R2 receptor complex.; assay type: functional; conditions: read-out: IC50_Mean
T1 sequence (Q13324 whole entry): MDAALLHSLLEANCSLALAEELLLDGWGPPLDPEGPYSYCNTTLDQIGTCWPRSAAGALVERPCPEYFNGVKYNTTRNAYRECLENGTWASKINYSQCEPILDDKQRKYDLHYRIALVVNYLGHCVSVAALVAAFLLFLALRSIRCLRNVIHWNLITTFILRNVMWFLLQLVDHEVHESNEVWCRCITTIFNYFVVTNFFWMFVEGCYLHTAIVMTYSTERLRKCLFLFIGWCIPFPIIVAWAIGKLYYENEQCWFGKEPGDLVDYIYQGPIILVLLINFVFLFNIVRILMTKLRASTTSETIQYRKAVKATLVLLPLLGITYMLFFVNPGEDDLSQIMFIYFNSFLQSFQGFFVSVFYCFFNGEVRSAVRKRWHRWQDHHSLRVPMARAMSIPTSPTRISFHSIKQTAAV
T1 sequence (P24387 whole entry): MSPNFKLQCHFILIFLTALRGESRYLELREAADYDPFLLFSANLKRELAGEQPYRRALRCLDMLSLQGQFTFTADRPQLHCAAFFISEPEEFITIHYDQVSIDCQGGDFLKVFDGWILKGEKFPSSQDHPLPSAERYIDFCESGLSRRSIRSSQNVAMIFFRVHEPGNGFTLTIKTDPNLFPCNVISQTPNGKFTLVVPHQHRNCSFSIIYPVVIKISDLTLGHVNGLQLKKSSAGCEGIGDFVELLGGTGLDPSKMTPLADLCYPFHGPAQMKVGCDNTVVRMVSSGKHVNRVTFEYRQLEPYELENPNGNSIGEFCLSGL

[3] = target: T2, Voltage-gated N-type calcium channel alpha-1B subunit/Amyloid beta A4 precursor protein-binding family A member 1 (Homo sapiens, UniProt Q00975+Q02410); assay type: protein assay
[4] = target: T1, Corticotropin-releasing factor receptor 2/Corticotropin-releasing factor-binding protein; test: activators of CRF receptor 2 with binding protein – uHTS hits, confirmation (AID 602473); assay type: functional; conditions: read-out: EC50_Mean
[5] = target: T2, Voltage-gated N-type calcium channel alpha-1B subunit/Amyloid beta A4 precursor protein-binding family A member 1; assay type: protein assay; remark: listed apart in the source
[6] = target: 1-phosphatidylinositol 4,5-bisphosphate phosphodiesterase gamma-1 (Homo sapiens, UniProt P19174); test: Counterscreen for inhibitors of phospholipase C isozymes (PLC-B3): Fluorescence-based biochemical high throughput dose response assay to identify inhibitors of phospholipase C isozymes (PLC-gamma1).
[7] = target: 1-phosphatidylinositol 4,5-bisphosphate phosphodiesterase beta-3 (Homo sapiens, UniProt Q01970); test: Fluorescence-based biochemical high throughput dose response assay to identify inhibitors of phospholipase C isozymes (PLC-B3).
[8] = inhibitors of PGC1a acetylation in cells, dose response, cell-based, cherry-picked samples (AID 720514); assay type: functional;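 also: potency may reflect raised or lowered acetylation signal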
[9] = target: T3, Trace amine-associated receptor 1 (Homo sapiens, UniProt Q96RJ0); test: Fluorescence-based cell-based high throughput dose response assay to identify agonists of the human trace amine associated receptor 1 (TAAR1).; assay type: functional
T3 sequence (Q96RJ0 whole entry): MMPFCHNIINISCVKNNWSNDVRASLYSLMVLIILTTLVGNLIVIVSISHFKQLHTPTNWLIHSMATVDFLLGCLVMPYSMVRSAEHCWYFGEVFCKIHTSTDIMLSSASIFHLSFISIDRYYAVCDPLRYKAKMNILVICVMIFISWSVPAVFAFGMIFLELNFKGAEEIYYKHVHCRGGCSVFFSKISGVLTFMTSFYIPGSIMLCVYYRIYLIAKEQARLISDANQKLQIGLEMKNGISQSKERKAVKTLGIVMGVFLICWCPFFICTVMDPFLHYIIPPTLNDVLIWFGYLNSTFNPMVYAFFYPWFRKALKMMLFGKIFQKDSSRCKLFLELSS

cells [10] = assay type: functional, cell-based
[11] = target: T3, Trace amine-associated receptor 1; test: Counterscreen for agonists of the human trace amine associated receptor 1 (hTAAR1): Fluorescence-based cell-based high throughput dose response assay to identify hTAAR1 agonist that also desensitize TAAR1 receptor response.; assay type: functional
cells [12] = assay type: functional, cell-based; remark: listed apart in the source
[13] = NIH-3T3 fibroblast cytotoxicity, dose response, cytotoxicity control, cell-based, fluorescence, Alamar Blue, secondary assay (AID 2327); assay type: functional;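 also: NIH-3T3 mouse fibroblasts cultured with fluconazole at 8 µg/mL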
[14] = target: T4, Serine/threonine-protein phosphatase (Candida dubliniensis (strain CD36 / CBS 7987 / NCPF 3949 / NRRLY-17841) (Yeast), UniProt B9W6M3); test: calcineurin pathway inhibitors in yeast reporter, dose response, S. cerevisiae, CDRE-lacZ, luminescence, secondary (AID 2388); assay type: functional, cell-based;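 also: yeast reporter cells carrying a calcineurin-responsive lacZ construct stimulated with calcium chloride; luminescent beta-galactosidase reporter signal in whole cells rather than isolated phosphatase activity; potency for inhibition where a drop in reporter signal means calcineurin blockade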
T4 sequence (B9W6M3 whole entry): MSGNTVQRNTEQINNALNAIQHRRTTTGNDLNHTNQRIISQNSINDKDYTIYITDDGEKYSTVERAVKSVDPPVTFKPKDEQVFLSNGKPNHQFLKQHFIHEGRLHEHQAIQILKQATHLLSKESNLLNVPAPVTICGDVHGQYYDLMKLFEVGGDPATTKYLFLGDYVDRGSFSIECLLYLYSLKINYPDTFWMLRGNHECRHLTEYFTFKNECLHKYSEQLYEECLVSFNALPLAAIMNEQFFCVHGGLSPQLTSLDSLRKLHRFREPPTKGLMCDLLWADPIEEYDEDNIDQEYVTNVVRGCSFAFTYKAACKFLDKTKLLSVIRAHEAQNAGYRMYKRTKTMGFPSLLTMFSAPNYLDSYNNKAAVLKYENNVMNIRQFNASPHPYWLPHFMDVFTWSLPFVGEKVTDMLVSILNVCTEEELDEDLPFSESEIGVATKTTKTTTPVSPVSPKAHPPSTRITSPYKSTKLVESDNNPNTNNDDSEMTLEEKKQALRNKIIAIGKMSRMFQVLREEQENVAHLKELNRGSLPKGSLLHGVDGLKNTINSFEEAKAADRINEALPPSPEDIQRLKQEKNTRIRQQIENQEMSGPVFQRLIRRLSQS

[15] = target: T5, Oxysterols receptor LXR-beta (Homo sapiens, UniProt P55055); test: LXR agonists, Gal4 luciferase reporter, dose response, counter-screen for ssDAF-12 agonist project, cell-based, luminescence, HEK293, S. stercoralis campaign (AID 720737); assay type: functional; conditions: read-out: IC50 (the source's name)
T5 sequence (P55055 whole entry): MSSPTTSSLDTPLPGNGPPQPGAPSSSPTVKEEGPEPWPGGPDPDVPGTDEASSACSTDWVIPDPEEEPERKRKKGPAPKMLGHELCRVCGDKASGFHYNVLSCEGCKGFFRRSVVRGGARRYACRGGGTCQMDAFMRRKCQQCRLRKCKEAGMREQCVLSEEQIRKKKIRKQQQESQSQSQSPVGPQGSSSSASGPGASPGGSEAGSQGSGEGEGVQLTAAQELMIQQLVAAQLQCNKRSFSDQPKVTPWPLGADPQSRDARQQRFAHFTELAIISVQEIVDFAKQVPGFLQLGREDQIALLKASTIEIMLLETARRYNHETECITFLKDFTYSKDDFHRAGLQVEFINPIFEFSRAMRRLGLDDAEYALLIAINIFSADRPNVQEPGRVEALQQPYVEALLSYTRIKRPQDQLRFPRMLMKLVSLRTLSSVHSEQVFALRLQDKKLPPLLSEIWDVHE

[16] = C. albicans growth with fluconazole, confirmation, fluorescence, retest (AID 2467); assay type: functional, cell-based
[17] = Luminescence-based cell-based high throughput dose response assay to identify activators of the DAF-12 from the parasite S. stercoralis (ssDAF-12).; assay type: functional
[18] = target: ATP-dependent molecular chaperone HSP82 (Candida albicans (strain WO-1) (Yeast), UniProt C4YTQ8); test: loss of DOC-induced GRE-beta-galactosidase reporter signal, dose response, Hsp90 inhibitor project, S. cerevisiae, luminescence (AID 2400); assay type: functional, cell-based;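 also: beta-galactosidase luminescence from glucocorticoid response element reporter as proxy for Hsp90 function; inhibitor potency where signal loss means Hsp90 inhibition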
cells [19] = test: cells
Major prion protein = Major prion protein (Homo sapiens, UniProt P04156); assay type: functional, cell-based
[20] = human group III sPLA2 inhibitors, dose response, biochemical, QFRET, IC50 (AID 743457);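 also: green fluorescence rise as the enzyme cleaves BODIPY PC-A2 in liposomes; potency for inhibition of the enzyme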
HEK293 = test: inhibitors of LMP1-driven NF-kB reporter, dose response, cell-based, HEK293, luciferase, cherry-pick (AID 588343); assay type: functional; conditions: Homo sapiens
[21] = CEM21 lymphoblast cell cytotoxicity, dose response, cytotoxicity control for viral fusion inhibitor project, CellTiter-Glo luminescence, cherry-picked (AID 652042); assay type: functional, cell-based;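 also: potency for signal decrease meaning cytotoxicity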
[22] = ZM109 Env clade C HIV-1 fusion inhibitors, dose response, HeLa effector, CEM target cells, luciferase, cherry-pick (AID 652058); assay type: functional, cell-based
[23] = inhibitors of clade B AD8 Env fusion, dose response, cell-based, cherry-pick (AID 652062); assay type: functional;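 also: luciferase signal from cell-cell fusion driven by HIV-1 clade B AD8 Env; potency is for inhibitors of fusion seen as a drop in luminescence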
[24] = off-target signal loss in HeLa-CEM21 co-culture – HeLa F-luc CTL cells, cherry-picked, counter-screen for HIV-1 Env fusion inhibitor project, dose response (AID 652040); assay type: functional, cell-based;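 also: potency for signal decrease marking cytotoxic or nonspecific inhibition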

With COc1cc2c(cc1OC)-c1cc(Nc3ccc(C(=O)O)cc3)nc(=O)n1CC2 the AC50 [1] was 4.29 µM (active), the AC50 (Caspase-6) was 28.9 µM (active) and the IC50 [2] was > 47.1 µM (inactive). The IC50 [3] was > 50 µM (inactive), the EC50 [4] was > 53 µM (inactive) and the IC50 [5] was 17.6 µM (active).
In the case of Cc1cc(NC(=O)c2ccc3c(c2)OCO3)ccc1NC(=O)c1ccccc1, the IC50 [6] is reported as > 122 µM (inactive) and the IC50 [7] is reported as > 122 µM (inactive).
With Cc1ccc(S(=O)(=O)N2CCCCC2C(=O)O)cc1 (stereo not drawn) the AC50 [8] was 17.6 µM (active).
With c1ccc(CC/N=C2\CCCc3c2[nH]c2ccccc32)cc1 the EC50 [9] was 0.106 µM (active), the IC50 (cells [10]) was > 29.9 µM (inactive) and the IC50 [11] was 0.341 µM (active). For the same compound, the EC50 (cells [12]) was > 29.9 µM (inactive).
With Cc1ccc(-n2nc(C)c3c(C)cc(O)nc32)cc1 the EC50 [13] was > 150 µM (inactive), the EC50 [14] was > 180 µM (inactive) and the EC50 [15] was > 67.5 µM (inactive). The EC50 [16] was 1.54 µM (active), the IC50 [17] was > 67.5 µM (inactive) and the EC50 [18] was > 150 µM (inactive).
For Cc1ccc(NS(=O)(=O)c2cc(C(=O)NCc3ccccn3)ccc2Cl)cc1C, the IC50 (cells [19]) was > 138 µM (inactive) and the IC50 (Major prion protein) was 13 µM (inactive).
In the case of NC(=S)NN=Cc1nccc2c(C(F)(F)C(F)(F)C(F)(F)F)cccc12, the IC50 [20] is reported as 31.9 µM (inactive) and the AC50 (HEK293) is reported as 0.643 µM (active).
In the case of COc1ccc(S(=O)(=O)N2CCCCC2)cc1NC(=O)CN(Cc1ccco1)Cc1ccco1, the AC50 [21] is reported as 68.8 µM (active).
For N=c1nc2n(cc1F)C1OC(CO)C(O)C1O2 (stereo not drawn), the AC50 [22] was < 0.26 µM (active), the AC50 [21] was 17.9 µM (active) and the AC50 [23] was 0.699 µM (active). The AC50 [24] was < 0.26 µM (active).
